These results are taken from patent US8372845B2, “Pyrazine derivatives as enac blockers” (Novartis AG, priority 2010, dated 2013).

For orientation: IC50 means the concentration that inhibits the measured activity by half. Low values mean greater potency in that assay, high ones weaker potency in that assay. As a reminder, the half-life is the time needed for the level to fall by half in the phase considered. Read a high half-life as slow decline.

Data set [1] addresses T1, epithelial sodium channel (ENaC) (Homo sapiens, UniProt P37088+P51168+P51170).
T1 construct: host or cells: primary Human Bronchial Epithelial cells (HBECs), differentiated at air-liquid interface
T1 sequence (P37088 1-669): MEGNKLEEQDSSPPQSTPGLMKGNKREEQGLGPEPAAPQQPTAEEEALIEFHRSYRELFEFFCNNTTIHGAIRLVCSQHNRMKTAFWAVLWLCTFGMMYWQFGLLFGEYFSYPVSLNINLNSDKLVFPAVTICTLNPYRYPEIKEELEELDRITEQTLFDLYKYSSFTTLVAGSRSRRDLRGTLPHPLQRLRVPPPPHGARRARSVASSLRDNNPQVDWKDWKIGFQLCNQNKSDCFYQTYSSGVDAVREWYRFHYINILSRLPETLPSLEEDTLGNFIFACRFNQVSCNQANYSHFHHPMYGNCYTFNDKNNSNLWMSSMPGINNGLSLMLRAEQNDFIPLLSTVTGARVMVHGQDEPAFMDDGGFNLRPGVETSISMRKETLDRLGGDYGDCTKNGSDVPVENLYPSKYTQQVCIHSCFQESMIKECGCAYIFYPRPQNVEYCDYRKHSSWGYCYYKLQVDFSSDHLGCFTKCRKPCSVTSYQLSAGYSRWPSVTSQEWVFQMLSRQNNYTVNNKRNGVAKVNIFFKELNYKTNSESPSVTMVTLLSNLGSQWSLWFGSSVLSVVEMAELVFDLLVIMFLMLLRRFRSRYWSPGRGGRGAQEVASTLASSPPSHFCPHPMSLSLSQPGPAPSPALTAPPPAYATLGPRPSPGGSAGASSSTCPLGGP
T1 sequence (P51168 1-640): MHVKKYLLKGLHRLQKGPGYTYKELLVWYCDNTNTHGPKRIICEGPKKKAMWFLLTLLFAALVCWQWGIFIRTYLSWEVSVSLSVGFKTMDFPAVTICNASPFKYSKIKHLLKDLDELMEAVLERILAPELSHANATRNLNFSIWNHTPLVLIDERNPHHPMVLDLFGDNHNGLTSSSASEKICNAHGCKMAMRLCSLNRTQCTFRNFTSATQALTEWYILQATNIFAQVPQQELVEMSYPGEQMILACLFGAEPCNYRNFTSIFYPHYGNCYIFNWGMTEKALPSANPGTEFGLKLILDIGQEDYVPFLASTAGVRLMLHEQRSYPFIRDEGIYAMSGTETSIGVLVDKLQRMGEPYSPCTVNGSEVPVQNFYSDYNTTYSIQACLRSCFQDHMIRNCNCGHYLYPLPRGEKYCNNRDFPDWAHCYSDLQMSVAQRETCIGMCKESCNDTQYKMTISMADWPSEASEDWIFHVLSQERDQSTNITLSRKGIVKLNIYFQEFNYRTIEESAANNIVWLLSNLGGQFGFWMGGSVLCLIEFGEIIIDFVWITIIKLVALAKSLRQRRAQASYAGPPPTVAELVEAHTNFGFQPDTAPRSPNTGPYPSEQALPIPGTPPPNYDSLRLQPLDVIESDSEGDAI
T1 sequence (P51170 1-649): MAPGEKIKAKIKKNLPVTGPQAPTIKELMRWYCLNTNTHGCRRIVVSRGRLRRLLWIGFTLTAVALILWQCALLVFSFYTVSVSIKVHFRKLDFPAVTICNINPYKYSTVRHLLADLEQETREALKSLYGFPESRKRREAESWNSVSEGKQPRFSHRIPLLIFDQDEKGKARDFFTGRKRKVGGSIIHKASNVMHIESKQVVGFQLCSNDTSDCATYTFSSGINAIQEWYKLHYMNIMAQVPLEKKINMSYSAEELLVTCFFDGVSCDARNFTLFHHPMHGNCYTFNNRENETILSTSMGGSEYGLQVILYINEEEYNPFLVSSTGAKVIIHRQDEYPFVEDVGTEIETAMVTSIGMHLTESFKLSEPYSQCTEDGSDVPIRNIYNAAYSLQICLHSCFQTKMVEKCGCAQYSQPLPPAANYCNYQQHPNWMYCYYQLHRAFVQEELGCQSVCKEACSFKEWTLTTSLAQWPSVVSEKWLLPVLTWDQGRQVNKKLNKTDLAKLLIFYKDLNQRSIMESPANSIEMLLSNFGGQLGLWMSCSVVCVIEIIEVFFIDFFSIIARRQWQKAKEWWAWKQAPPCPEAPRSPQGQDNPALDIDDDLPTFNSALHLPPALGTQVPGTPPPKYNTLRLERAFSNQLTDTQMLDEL
In words: Short circuit current (ISC) measurements in Human Bronchial Epithelial cells (HBEC-ENaC). It is filed as cell-based. The note with it: inhibition of amiloride-sensitive ISC, HBECs at air-liquid interface, Ussing chamber, apical addition. The procedure:
Human Bronchial Epithelial cells (HBECs) (Cambrex) were cultured under air-liquid interface conditions to provide a well differentiated mucociliary phenotype.
Medium was changed every 48 hours until cells were 90% confluent. […] Cells were maintained submerged for the first 7 days in culture, after which time they were exposed to an apical air interface for the remainder of the culture period. At this time, media was changed to DMEM:F12 media containing 2% v/v Ultroser G for the remainder of culture. Amphotericin B was removed from all media 3 feeds prior to use in the Ussing Chambers. Cells were used between days 7 and 21 after establishment of the apical-air interface. At all stages of culture, cells were maintained at 37° C. in 5% CO2 in an air incubator.
Short Circuit Current (ISC) Measurements
Snapwell inserts were mounted in Vertical Diffusion Chambers (Costar) and were bathed with continuously gassed Ringer solution (5% CO2 in O2; pH 7.4) maintained at 37° C. containing (in mM): 120 NaCl, 25 NaHCO3, 3.3 KH2PO4, 0.8 K2HPO4, 1.2 CaCl2, 1.2 MgCl2, and 10 glucose. The solution osmolarity was between 280 and 300 mOsmol/kg H2O for all physiological salt solutions used. Cells were voltage clamped to 0 mV (model EVC4000; WPI). RT was measured by applying a 1- or 2-mV pulse at 30-s intervals and calculating RT by Ohm's law. Data were recorded using a PowerLab workstation (ADInstruments).
Test compounds were prepared as a 10 mM stock solution in DMSO (95%). Serial 3-fold dilutions were freshly prepared in an appropriate vehicle (distilled H2O or Ringers solution). The initial concentration was added to the apical chamber as a 1000× concentrate in 5 μL, resulting in a final 1× concentration the 5 mL volume of the Ussing chamber. Subsequent additions of compound were added in a 3.3 μL volume of the 1000× serially diluted stock solution. At the completion of the concentration-response experiment, amiloride (10 μM) was added into the apical chamber to enable the total amiloride-sensitive current to be measured. An amiloride control IC50 was established at the start of each experiment.
Results are expressed as the mean % inhibition of the amiloride-sensitive ISC. […] Cell inserts were typically run in duplicate and the IC50 calculated on the mean % inhibition data.

Data set [2] can be described thus: Stability in human plasma. It is filed as in vitro ADME. The note with it: pooled human plasma (lithium heparin), 1 μM compound, 37° C., 1 hour incubation. The procedure:
The stability of the compounds of the invention in human plasma may be measured as follows:
Stability in Human Plasma
Blood was taken from healthy volunteers in lithium heparin tubes and plasma was prepared by centrifugal separation of blood cells at 1500 g. Plasma from at least 3 individuals was pooled and used for compound stability determination.
Compounds were prepared in 100% DMSO at a concentration of 10 mM and serially diluted to a concentration of 100 μM. Incubations were performed at a final concentration of 1 μM and were initiated by addition of 3 μl of 100 μM compound stock solution into 297 μl plasma, pre-warmed in a water bath to 37° C., followed by brief vortex mixing. 50 μl aliquots of plasma were removed at 4 timepoints over a 1 hour incubation period and quenched immediately by protein precipitation achieved by addition of the aliquot of plasma to a pre-prepared 96 well plate containing 150 μl of acetonitrile containing an appropriate internal standard. Acetonitrile quenched samples were vortex mixed followed by centrifugation for 20 minutes at 1500 g to remove the precipitated proteins. Initial compound levels (at time=0 minutes) was established by spiking compound into pre-quenched plasma at the same concentration as used in the incubation. The supernatant was then removed, diluted 1:1 with water and analysed for compound remaining by liquid chromatography-tandem mass spectrometry (Waters Acquity HPLC, Applied Biosystems API4000). The plasma elimination rate constant of the compound was calculated by fitting the peak area ratio of compound:internal standard to an exponential decay function and the half life calculated by division of the natural log of 2 by the elimination rate constant (Microsoft Excel).

In data set [1], `CCCN(CCC)C(=O)COC(=O)COc1ccc(CCC(=O)N2CCC3(CC2)CN/C(=N\C(=O)c2nc(Cl)c(N)nc2N)N3)cc1Cl` [Example 3.0, [2-Chloro-4-(3-{2-[(E)-3,5-diamino-6-chloro-pyrazine-2-carbonylimino]-1,3,8-triaza-spiro[4.5]dec-8-yl}-3-oxo-propyl)-phenoxy]-acetic acid dipropylcarbamoylmethyl ester] had an IC50 of 11 nM. Further, the half-life at 1 μM in data set [2] stood at 2 min.
The corresponding values for `Nc1nc(N)c(C(=O)/N=C2\NCC3(CCN(C(=O)c4cccc(S(=O)(=O)NCCC(=O)OCC(=O)N5CCCC5C(F)(F)F)c4)CC3)N2)nc1Cl` (centres unmarked) [Example 4.0, 3-(3-{2-[(E)-3,5-Diamino-6-chloro-pyrazine-2-carbonylimino]-1,3,8-triaza-spiro[4.5]decane-8-carbonyl}-benzenesulfonylamino)-propionic acid 2-oxo-2-(2-trifluoromethyl-pyrrolidin-1-yl)-ethyl ester] are 101 nM and 28 min.
Consider `Nc1nc(N)c(C(=O)/N=C2\NCC3(CCN(C(=O)CCc4ccc(OCC(=O)OCCN5CCCCC5=O)c(Cl)c4)CC3)N2)nc1Cl` [Example 4.1, [2-Chloro-4-(3-{2-[(E)-3,5-diamino-6-chloro-pyrazine-2-carbonylimino]-1,3,8-triaza-spiro[4.5]dec-8-yl}-3-oxo-propyl)-phenoxy]-acetic acid 2-(2-oxo-piperidin-1-yl)ethyl ester], for which 132 nM corresponded to half-maximal inhibition in data set [1] (IC50). This molecule returned a half-life at 1 μM in data set [2] of 3 min.
In data set [1], `Nc1nc(N)c(C(=O)/N=C2\NCC3(CCN(C(=O)CCc4ccc(OCC(=O)OCC(=O)N5CCOCC5)cc4)CC3)N2)nc1Cl` [Example 4.2, [4-(3-{2-[(E)-3,5-Diamino-6-chloro-pyrazine-2-carbonylimino]-1,3,8-triaza-spiro[4.5]dec-8-yl}-3-oxo-propyl)-phenoxy]-acetic acid 2-morpholin-4-yl-2-oxo-ethyl ester] returned an IC50 of 450 nM. Moreover, the half-life at 1 μM in data set [2] was found to be 4 min.
The corresponding values for `CCCN(CCC)C(=O)COC(=O)C1(CNS(=O)(=O)c2cccc(C(=O)N3CCC4(CC3)CN/C(=N\C(=O)c3nc(Cl)c(N)nc3N)N4)c2)CCC1` [Example 5.0, 1-[(3-{2-[(E)-3,5-Diamino-6-chloro-pyrazine-2-carbonylimino]-1,3,8-triaza-spiro[4.5]decane-8-carbonyl}-benzenesulfonylamino)-methyl]-cyclobutanecarboxylic acid dipropylcarbamoylmethyl ester] are 12 nM and 5 min.
Consider `CCCN(CCC)C(=O)COC(=O)CCNC(=O)Nc1cccc(C(=O)N2CCC3(CC2)CN/C(=N\C(=O)c2nc(Cl)c(N)nc2N)N3)c1` [Example 5.1, 3-[3-(3-{2-[(E)-3,5-Diamino-6-chloro-pyrazine-2-carbonylimino]-1,3,8-triaza-spiro[4.5]decane-8-carbonyl}-phenyl)-ureido]-propionic acid dipropylcarbamoylmethyl ester], for which the midpoint of inhibition in data set [1], the IC50, lay at 31 nM. The same molecule had a half-life at 1 μM in data set [2] of 2 min.
The corresponding values for `Nc1nc(N)c(C(=O)/N=C2\NCC3(CCN(C(=O)c4cccc(S(=O)(=O)NCC5(C(=O)OCC(=O)N6CCCC6C(F)(F)F)CCC5)c4)CC3)N2)nc1Cl` (centres unmarked) [Example 5.2, 1-[(3-{2-[(E)-3,5-Diamino-6-chloro-pyrazine-2-carbonylimino]-1,3,8-triaza-spiro[4.5]decane-8-carbonyl}-benzenesulfonylamino)-methyl]-cyclobutanecarboxylic acid 2-oxo-2-(2-trifluoromethyl-pyrrolidin-1-yl)-ethyl ester] are 19 nM and 39 min.
